Patent publication US20260356810A1, “NOVEL PIPERAZINE-BASED SULFONAMIDES AND THEIR USE AS NEUROPROTECTIVE AND/OR NEURORESTORATIVE AGENTS” (GENECODE, priority 2022, published 2026)

These molecules were tested against T1, GFRα1-RET (Homo sapiens, UniProt P56159) (assay: Luciferase assay: activation of Elk1 signaling in reporter-gene cells expressing GFRα1-RET (MG87 murine fibroblast stably transfected with PathDetect Elk-1, GFRα1, and RET)). Details: Table 4; MG87 murine fibroblasts with PathDetect Elk-1, GFRα1, RET; 6 concentrations, duplicate, two times independently; agonist/activator activity; read-out: Luciferase Assay EC50.
T1 construct: expressed in transfected cells; host or cells: MG87 murine fibroblast
T1 sequence (P56159 25-429 limits assumed): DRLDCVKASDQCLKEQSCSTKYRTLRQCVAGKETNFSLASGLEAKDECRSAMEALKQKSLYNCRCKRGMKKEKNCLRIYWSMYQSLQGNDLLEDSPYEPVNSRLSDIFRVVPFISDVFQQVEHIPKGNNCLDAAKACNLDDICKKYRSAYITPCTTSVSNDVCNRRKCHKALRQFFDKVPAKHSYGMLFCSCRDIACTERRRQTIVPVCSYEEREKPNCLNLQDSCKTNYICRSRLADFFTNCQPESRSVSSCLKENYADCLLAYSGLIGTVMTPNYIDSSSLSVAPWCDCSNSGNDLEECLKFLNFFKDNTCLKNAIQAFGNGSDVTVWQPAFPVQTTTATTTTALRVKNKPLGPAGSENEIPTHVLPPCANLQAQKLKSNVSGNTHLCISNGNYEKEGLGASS
T1 sequence (P07949 29-1114 partner): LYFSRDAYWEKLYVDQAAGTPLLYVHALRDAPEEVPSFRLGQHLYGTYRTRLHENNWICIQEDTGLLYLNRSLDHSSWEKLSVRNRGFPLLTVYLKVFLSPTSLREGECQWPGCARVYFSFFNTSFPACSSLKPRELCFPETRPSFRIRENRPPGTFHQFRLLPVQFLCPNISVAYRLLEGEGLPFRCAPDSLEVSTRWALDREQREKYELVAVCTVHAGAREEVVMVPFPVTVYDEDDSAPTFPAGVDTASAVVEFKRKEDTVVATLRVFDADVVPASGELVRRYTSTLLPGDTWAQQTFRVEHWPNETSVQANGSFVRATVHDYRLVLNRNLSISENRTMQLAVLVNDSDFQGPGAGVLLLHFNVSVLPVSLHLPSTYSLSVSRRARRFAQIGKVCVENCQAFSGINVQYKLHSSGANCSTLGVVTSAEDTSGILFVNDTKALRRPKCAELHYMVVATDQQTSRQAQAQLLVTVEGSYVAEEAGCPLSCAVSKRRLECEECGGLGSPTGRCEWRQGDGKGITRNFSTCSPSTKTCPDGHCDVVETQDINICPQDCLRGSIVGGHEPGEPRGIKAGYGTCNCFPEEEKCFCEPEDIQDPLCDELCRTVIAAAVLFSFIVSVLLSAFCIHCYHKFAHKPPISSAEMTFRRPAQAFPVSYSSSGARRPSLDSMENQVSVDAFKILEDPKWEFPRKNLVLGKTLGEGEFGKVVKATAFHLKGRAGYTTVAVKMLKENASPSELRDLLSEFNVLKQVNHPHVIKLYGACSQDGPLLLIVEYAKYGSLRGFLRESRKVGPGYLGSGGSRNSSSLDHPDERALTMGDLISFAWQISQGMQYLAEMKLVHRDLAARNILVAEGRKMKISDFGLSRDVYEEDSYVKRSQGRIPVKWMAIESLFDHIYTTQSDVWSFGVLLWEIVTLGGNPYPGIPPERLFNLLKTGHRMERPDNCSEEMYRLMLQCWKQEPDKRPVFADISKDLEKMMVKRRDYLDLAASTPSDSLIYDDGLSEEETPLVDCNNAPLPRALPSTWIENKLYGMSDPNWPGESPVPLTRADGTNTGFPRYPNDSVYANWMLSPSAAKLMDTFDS
Format: cell-based
Method: The purpose of this experiment was to evaluate the GFRα1-RET activity of the compounds 001-060 according to the invention.
The compounds were tested for their activating activity of Elk1 signaling using the previously developed reporter-gene-based system in cells expressing GFRα1-RET (MG87 murine fibroblast stably transfected with PathDetect Elk-1, GFRα1, and RET) disclosed in Sidorova, Y. A. et al.: “Persephin signaling through GFRα1: The potential for the treatment of Parkinson's disease.” Molecular and Cellular Neuroscience, July 2010, Vol. 44, pp. 223-232. DOI: 10.1016/j.mcn.2010.03.009. For EC50 determination, a dose-response test was performed using 6 concentrations of each tested compound. Dose-response curves were fitted using the sigmoidal dose-response (variable slope) analysis in GraphPad Prism program (Graph Pad Inc) and EC50 of agonist/activator activity was calculated. Dose-response experiments were all performed in duplicate, two times independently.
The compounds were tested for their activating activity of Elk1 signaling using the same materials and methods than for the compounds according to the invention (Example 2 herein, section “Materials and methods”).

With `COc1ccc(S(=O)(=O)N2CCN(CCc3ccc(Cl)cc3)CC2)cc1N1CCN(C(=O)c2ccc(F)cc2Cl)CC1` [Compound 051, (2-chloro-4-fluoro-phenyl)-[4-[5-[4-[2-(4-chlorophenyl)ethyl]piperazin-1-yl]sulfonyl-2-methoxy-phenyl]piperazin-1-yl]methanone] as the molecule, how does the EC50 read?
Its EC50 is 1000 to 5000 nM.

How did the EC50 turn out when `COc1ccc(S(=O)(=O)N2CCN(CCc3ccc(F)cc3)CC2)cc1N1CCN(C(=O)c2ccc(F)cc2Cl)CC1` [Compound 052, (2-chloro-4-fluoro-phenyl)-[4-[5-[4-[2-(4-fluorophenyl)ethyl]piperazin-1-yl]sulfonyl-2-methoxy-phenyl]piperazin-1-yl]methanone] was run?
The EC50 was 1000 to 5000 nM.

For `Cc1cc(S(=O)(=O)N2CCC(c3ccccc3)CC2)cc(N2CCN(C(=O)c3ccc(F)cc3Cl)CC2)c1O` [Compound 055, (2-chloro-4-fluoro-phenyl)-[4-[2-hydroxy-3-methyl-5-[(4-phenyl-1-piperidyl)sulfonyl]phenyl]piperazin-1-yl]methanone], which EC50 is on record?
The EC50 was < 1000 nM.

With `Cc1cc(S(=O)(=O)N2CCC(c3ccc(F)cc3)CC2)cc(N2CCN(C(=O)c3ccc(F)cc3Cl)CC2)c1O` [Compound 056, (2-chloro-4-fluoro-phenyl)-[4-[5-[[4-(4-fluorophenyl)-1-piperidyl]sulfonyl]-2-hydroxy-3-methyl-phenyl]piperazin-1-yl]methanone] as the molecule, how does the EC50 read?
The EC50 was < 1000 nM.

For `O=C(c1ccc(F)cc1Cl)N1CCN(c2cc(S(=O)(=O)N3CCC(F)CC3)cc(Cl)c2O)CC1` [Compound 057, (2-chloro-4-fluoro-phenyl)-[4-[3-chloro-5-[(4-fluoro-1-piperidyl)sulfonyl]-2-hydroxy-phenyl]piperazin-1-yl]methanone], which EC50 is on record?
Its EC50 is 1000 to 5000 nM.

Which EC50 does the source give for `CC(C)(C)NS(=O)(=O)c1cc(Cl)c(O)c(N2CCN(C(=O)c3ccc(F)cc3Cl)CC2)c1` [Compound 058, N-tert-butyl-3-chloro-5-[4-(2-chloro-4-fluoro-benzoyl)piperazin-1-yl]-4-hydroxy-benzenesulfonamide] here?
The EC50 was < 1000 nM.

`CN(CC1CC1)S(=O)(=O)c1cc(Cl)c(O)c(N2CCN(C(=O)c3ccc(F)cc3Cl)CC2)c1` [Compound 059, 3-chloro-5-[4-(2-chloro-4-fluoro-benzoyl)piperazin-1-yl]-N-(cyclopropylmethyl)-4-hydroxy-N-methyl-benzenesulfonamide] was tested. Which EC50 did it give?
Its EC50 is < 1000 nM.

With `COc1ccc(S(=O)(=O)N2CCCC2(C)C)cc1N1CCN(C(=O)c2ccc(F)cc2Cl)CC1` [Compound 060, (2-chloro-4-fluoro-phenyl)-[4-[5-(2,2-dimethylpyrrolidin-1-yl)sulfonyl-2-methoxy-phenyl]piperazin-1-yl]methanone] as the molecule, how does the EC50 read?
Its EC50 is 1000 to 5000 nM.

Same assay, conditions: Table 6, comparison with comparative compounds; values for 001, 009, 010 reported from Table 4; MG87 GFRα1-RET cells; read-out: Luciferase Assay EC50

`COc1ccc(S(=O)(=O)N2CCC(Cc3ccccc3)CC2)cc1N1CCN(C(=O)c2cc(F)ccc2C(F)(F)F)CC1` [Compound C01, (4-(5-((4-benzylpiperidin-1-yl)sulfonyl)-2-methoxyphenyl)piperazin-1-yl)(5-fluoro-2-(trifluoromethyl)phenyl)methanone, reference compound] was tested. Which EC50 did it give?
The EC50 was > 50000 nM.

`CCN(CC)S(=O)(=O)c1ccc(OC)c(N2CCN(C(=O)c3cc(F)ccc3C(F)(F)F)CC2)c1` [Compound C02, N,N-diethyl-3-(4-(5-fluoro-2-(trifluoromethyl)benzoyl)piperazin-1-yl)-4-methoxybenzenesulfonamide, reference compound] was tested. Which EC50 did it give?
Its EC50 is > 50000 nM.

Same assay, conditions: text statement on Table 6 results, GFRα1-RET luciferase assay; read-out: EC50

How did the EC50 turn out when `COc1ccc(S(=O)(=O)N2CCC(Cc3ccccc3)CC2)cc1N1CCN(C(=O)c2cc(F)ccc2C(F)(F)F)CC1` [Compound C01, (4-(5-((4-benzylpiperidin-1-yl)sulfonyl)-2-methoxyphenyl)piperazin-1-yl)(5-fluoro-2-(trifluoromethyl)phenyl)methanone, reference compound] was run?
Its EC50 is > 50000 nM.

With `CCN(CC)S(=O)(=O)c1ccc(OC)c(N2CCN(C(=O)c3cc(F)ccc3C(F)(F)F)CC2)c1` [Compound C02, N,N-diethyl-3-(4-(5-fluoro-2-(trifluoromethyl)benzoyl)piperazin-1-yl)-4-methoxybenzenesulfonamide, reference compound] as the molecule, how does the EC50 read?
The EC50 was > 50000 nM.
